Data: PubChem BioAssay (NCI)
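Cells were grown in 96-well plates and exposed to each compound for 48 hours at five concentrations; endpoints were interpolated linearly between bracketing concentrations, or set to the highest concentration if not reached. At the TGI there is no net growth.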

How the values were obtained:
Experiment in all cases: inhibition of tumour cell growth, NCI panel, 48 h
786-0 renal = tested on: 786-0 renal
A498 renal = tested on: A498 renal
A549 NSCLC = tested on: A549 NSCLC
ACHN renal = tested on: ACHN renal
CAKI-1 renal = tested on: CAKI-1 renal
CCRF-CEM leukemia = tested on: CCRF-CEM leukemia
COLO 205 colon = tested on: COLO 205 colon
DLD-1 colon = tested on: DLD-1 colon
DMS 114 small cell lung = tested on: DMS 114 small cell lung
DMS 273 small cell lung = tested on: DMS 273 small cell lung
EKVX NSCLC = tested on: EKVX NSCLC
HCC-2998 colon = tested on: HCC-2998 colon
HCT-116 colon = tested on: HCT-116 colon
HCT-15 colon = tested on: HCT-15 colon
HL-60(TB) leukemia = tested on: HL-60(TB) leukemia
HOP-18 NSCLC = tested on: HOP-18 NSCLC
HOP-62 NSCLC = tested on: HOP-62 NSCLC
HOP-92 NSCLC = tested on: HOP-92 NSCLC
HT29 colon = tested on: HT29 colon
IGROV1 ovarian = tested on: IGROV1 ovarian
K-562 leukemia = tested on: K-562 leukemia
KM12 colon = tested on: KM12 colon
KM20L2 colon = tested on: KM20L2 colon
LOX IMVI melanoma = tested on: LOX IMVI melanoma
LXFL 529 NSCLC = tested on: LXFL 529 NSCLC
M14 melanoma = tested on: M14 melanoma
M19-MEL melanoma = tested on: M19-MEL melanoma
MALME-3M melanoma = tested on: MALME-3M melanoma
MOLT-4 leukemia = tested on: MOLT-4 leukemia
NCI-H226 lung = tested on: NCI-H226 lung
NCI-H23 lung = tested on: NCI-H23 lung
NCI-H460 lung = tested on: NCI-H460 lung
NCI-H522 lung = tested on: NCI-H522 lung
OVCAR-3 ovarian = tested on: OVCAR-3 ovarian
OVCAR-4 ovarian = tested on: OVCAR-4 ovarian
OVCAR-5 ovarian = tested on: OVCAR-5 ovarian
OVCAR-8 ovarian = tested on: OVCAR-8 ovarian
RPMI-8226 leukemia = tested on: RPMI-8226 leukemia
RXF 393 renal = tested on: RXF 393 renal
SF-268 CNS = tested on: SF-268 CNS
SF-295 CNS = tested on: SF-295 CNS
SF-539 CNS = tested on: SF-539 CNS
SK-MEL-2 melanoma = tested on: SK-MEL-2 melanoma
SK-MEL-28 melanoma = tested on: SK-MEL-28 melanoma
SK-MEL-5 melanoma = tested on: SK-MEL-5 melanoma
SK-OV-3 ovarian = tested on: SK-OV-3 ovarian
SN12C renal = tested on: SN12C renal
SNB-19 CNS = tested on: SNB-19 CNS
SNB-75 CNS = tested on: SNB-75 CNS
SNB-78 CNS = tested on: SNB-78 CNS
SR leukemia = tested on: SR leukemia
SW-620 colon = tested on: SW-620 colon
TK-10 renal = tested on: TK-10 renal
U251 CNS = tested on: U251 CNS
UACC-257 melanoma = tested on: UACC-257 melanoma
UACC-62 melanoma = tested on: UACC-62 melanoma
UO-31 renal = tested on: UO-31 renal
XF 498 CNS = tested on: XF 498 CNS
RXF-631 renal = tested on: RXF-631 renal

c1ccc(-c2csc3c4ccccc4c4ccccc4[n+]23)cc1
TGI (786-0 renal): 21 µM
TGI (A498 renal): 33.4 µM
TGI (A549 NSCLC): 19.5 µM
TGI (ACHN renal): 30.6 µM
TGI (CAKI-1 renal): > 36 µM
TGI (CCRF-CEM leukemia): > 38.5 µM
TGI (COLO 205 colon): 7.73 µM
TGI (DLD-1 colon): 25.4 µM
TGI (DMS 114 small cell lung): 4.89 µM
TGI (DMS 273 small cell lung): 4.58 µM
TGI (EKVX NSCLC): 31.8 µM
TGI (HCC-2998 colon): 13 µM
TGI (HCT-116 colon): 12.1 µM
TGI (HCT-15 colon): > 78.7 µM
TGI (HL-60(TB) leukemia): > 35 µM
TGI (HOP-18 NSCLC): 49.6 µM
TGI (HOP-62 NSCLC): 20.7 µM
TGI (HOP-92 NSCLC): 24.9 µM
TGI (HT29 colon): 20.6 µM
TGI (IGROV1 ovarian): 31.3 µM
TGI (K-562 leukemia): > 30.7 µM
TGI (KM12 colon): 3.36 µM
TGI (KM20L2 colon): 20.6 µM
TGI (LOX IMVI melanoma): 16.9 µM
TGI (LXFL 529 NSCLC): 16.6 µM
TGI (M14 melanoma): 22 µM
TGI (M19-MEL melanoma): 4.22 µM
TGI (MALME-3M melanoma): 3.21 µM
TGI (MOLT-4 leukemia): > 25.5 µM
TGI (NCI-H226 lung): 11.5 µM
TGI (NCI-H23 lung): 11.9 µM
TGI (NCI-H460 lung): 10.2 µM
TGI (NCI-H522 lung): 7.12 µM
TGI (OVCAR-3 ovarian): 5.29 µM
TGI (OVCAR-4 ovarian): 18.3 µM
TGI (OVCAR-5 ovarian): 35.8 µM
TGI (OVCAR-8 ovarian): 17.9 µM
TGI (RPMI-8226 leukemia): > 100 µM
TGI (RXF 393 renal): 26.7 µM
TGI (SF-268 CNS): 9.65 µM
TGI (SF-295 CNS): 16 µM
TGI (SF-539 CNS): 14.8 µM
TGI (SK-MEL-2 melanoma): 7.71 µM
TGI (SK-MEL-28 melanoma): 7.96 µM
TGI (SK-MEL-5 melanoma): 2.86 µM
TGI (SK-OV-3 ovarian): 38.5 µM
TGI (SN12C renal): 11.2 µM
TGI (SNB-19 CNS): 7.52 µM
TGI (SNB-75 CNS): 6.98 µM
TGI (SNB-78 CNS): 11.1 µM
TGI (SR leukemia): > 100 µM
TGI (SW-620 colon): 17.4 µM
TGI (TK-10 renal): 43.6 µM
TGI (U251 CNS): 13.8 µM
TGI (UACC-257 melanoma): 3.27 µM
TGI (UACC-62 melanoma): 5.27 µM
TGI (UO-31 renal): 31.8 µM
TGI (XF 498 CNS): 5.46 µM

O=C1C[C@H]2CCCN2[C@@H](c2ccccc2)C1
TGI (786-0 renal): > 100 µM
TGI (A498 renal): > 100 µM
TGI (A549 NSCLC): > 100 µM
TGI (ACHN renal): > 100 µM
TGI (CAKI-1 renal): > 100 µM
TGI (CCRF-CEM leukemia): > 100 µM
TGI (COLO 205 colon): > 100 µM
TGI (DMS 273 small cell lung): > 100 µM
TGI (EKVX NSCLC): > 100 µM
TGI (HCC-2998 colon): > 100 µM
TGI (HCT-116 colon): > 100 µM
TGI (HCT-15 colon): > 100 µM
TGI (HL-60(TB) leukemia): > 100 µM
TGI (HOP-18 NSCLC): > 100 µM
TGI (HOP-62 NSCLC): > 100 µM
TGI (HOP-92 NSCLC): > 100 µM
TGI (HT29 colon): > 100 µM
TGI (IGROV1 ovarian): > 100 µM
TGI (K-562 leukemia): > 100 µM
TGI (KM12 colon): > 100 µM
TGI (KM20L2 colon): > 100 µM
TGI (LOX IMVI melanoma): > 100 µM
TGI (LXFL 529 NSCLC): > 100 µM
TGI (M14 melanoma): > 100 µM
TGI (M19-MEL melanoma): > 100 µM
TGI (MALME-3M melanoma): > 100 µM
TGI (MOLT-4 leukemia): > 100 µM
TGI (NCI-H226 lung): > 100 µM
TGI (NCI-H23 lung): > 100 µM
TGI (NCI-H460 lung): > 100 µM
TGI (NCI-H522 lung): > 100 µM
TGI (OVCAR-3 ovarian): > 100 µM
TGI (OVCAR-4 ovarian): > 100 µM
TGI (OVCAR-5 ovarian): > 100 µM
TGI (OVCAR-8 ovarian): > 100 µM
TGI (RPMI-8226 leukemia): > 100 µM
TGI (RXF 393 renal): > 100 µM
TGI (RXF-631 renal): > 100 µM
TGI (SF-268 CNS): > 100 µM
TGI (SF-295 CNS): > 100 µM
TGI (SF-539 CNS): > 100 µM
TGI (SK-MEL-2 melanoma): > 100 µM
TGI (SK-MEL-28 melanoma): > 100 µM
TGI (SK-MEL-5 melanoma): > 100 µM
TGI (SK-OV-3 ovarian): > 100 µM
TGI (SN12C renal): > 100 µM
TGI (SNB-19 CNS): > 100 µM
TGI (SNB-75 CNS): > 100 µM
TGI (SNB-78 CNS): > 100 µM
TGI (SW-620 colon): > 100 µM
TGI (TK-10 renal): > 100 µM
TGI (U251 CNS): > 100 µM
TGI (UACC-257 melanoma): > 100 µM
TGI (UACC-62 melanoma): > 100 µM
TGI (UO-31 renal): > 100 µM
TGI (XF 498 CNS): > 100 µM
